Literature values, collected in patent US20080095814A1, “Compositions Having a High Antiviral and Antibacterial Efficacy” (THE DIAL CORPORATION, priority 2004, published 2008).

Test system: rhinoviral infections
Conditions: subjects who used iodine products

II [iodine]
colds in users versus placebo users: significantly fewer colds than placebo users
